# ChEMBL document CHEMBL1221210, “A Cdc7 kinase inhibitor restricts initiation of DNA replication and has antitumor activity” (Nat Chem Biol, 2008)
# pIC50: −log10 of the molar value.
# What was measured:
# HeLa [1] = assay: Inhibition of DNA replication in human HeLa cells assessed as increase in replication fork speed per min at 2 uM after 2 hrs by immunofluorescence assay; assay type: functional
# SF-539 [2] = assay: Antiproliferative activity against human SF539 cells expressing p53 gene after 72 hrs by proliferative assay; assay type: functional, cell-based; conditions: SF-539, 72 h
# HeLa [3] = assay: Inhibition of DNA replication in human HeLa cells assessed as interorigin distance between homogenous DNA fibers at 5 uM after 2 hrs by immunofluorescence assay; assay type: functional
# SF-539 [4] = assay: Induction of cell cycle arrest in human SF539 cells expressing p53 gene assessed as residual DNA synthesis at 10 uM after 24 hrs by FACS analysis; assay type: functional
# HeLa [5] = assay: Inhibition of DNA replication in human HeLa cells assessed as increase in replication fork speed per min at 2 uM after 4 hrs by immunofluorescence assay; assay type: functional
# NHDF [6] = assay: Induction of cell cycle arrest in NHDF expressing p53 gene assessed as accumulation at subG1 phase at 5 uM after 24hrs by FACS analysis; assay type: cell-based; conditions: human
# OVCAR-8 [7] = assay: Antiproliferative activity against p53 deficient human OVCAR8 cells after 72 hrs by proliferative assay; assay type: functional, cell-based; conditions: OVCAR-8, 72 h
# K562 [8] = assay: Induction of cell cycle arrest in p53 deficient human K562 cells assessed as accumulation at subG1 phase at 5 uM after 24hrs by FACS analysis; assay type: functional
# PC-3 = assay: Antiproliferative activity against human PC3 cells expressing p53 gene after 72 hrs by proliferative assay; assay type: functional, cell-based; conditions: PC-3, 72 h
# MCF7 [9] = assay: Induction of cell cycle arrest in human MCF7 cells expressing p53 gene assessed as residual DNA synthesis at 5 uM after 24 hrs by FACS analysis; assay type: functional
# [10] = Inhibition of Ck2
# U2OS = assay: Induction of cell cycle arrest in human U2OS cells expressing p53 gene assessed as accumulation at subG1 phase at 5 uM after 24hrs by FACS analysis; assay type: functional
# HeLa [11] = assay: Inhibition of DNA replication in human HeLa cells assessed as increase in replication fork speed per min at 5 uM after 4 hrs by immunofluorescence assay; assay type: functional
# Jurkat [12] = assay: Induction of cell cycle arrest in p53 deficient human Jurkat cells assessed as residual DNA synthesis at 10 uM after 24 hrs by FACS analysis; assay type: functional
# [13] = Induction of cell cycle arrest in p53 deficient human A2780/E6 cells assessed as accumulation at subG1 phase at 10 uM after 24hrs by FACS analysis; assay type: functional
# [14] = biological target: Serine/threonine-protein kinase TAO3 (Homo sapiens, UniProt Q9H2K8); assay: Inhibition of TAO3
# Rattus norvegicus = assay: AUC in rat carrying DMBA-induced mammary carcinoma at 10 mg/kg, iv after 10 hrs; assay type: ADME, organism-based, Plasma; parameters: time < 10 hr, dose 10 mg/kg, route intravenous; conditions: in vivo
# HeLa [15] = assay: Inhibition of DNA replication in human HeLa cells assessed as increase in replication fork speed per min at 5 uM after 2 hrs by immunofluorescence assay; assay type: functional
# HeLa [16] = assay: Induction of cell cycle arrest in p53 deficient human HeLa cells assessed as accumulation at subG1 phase at 10 uM after 24hrs by FACS analysis; assay type: functional
# OVCAR-8 [17] = assay: Induction of cell cycle arrest in p53 deficient human OVCAR8 cells assessed as residual DNA synthesis at 10 uM after 24 hrs by FACS analysis; assay type: functional
# SF-268 [18] = assay: Induction of cell cycle arrest in p53 deficient human SF268 cells assessed as accumulation at subG1 phase at 5 uM after 24 hrs FACS analysis; assay type: functional
# K562 [19] = assay: Antiproliferative activity against p53 deficient human K562 cells after 72 hrs; assay type: functional, cell-based; conditions: K562, 72 h
# Jurkat [20] = assay: Induction of cell cycle arrest in p53 deficient human Jurkat cells assessed as accumulation at subG1 phase at 5 uM after 24hrs by FACS analysis; assay type: functional
# Jurkat [21] = assay: Antiproliferative activity against p53 deficient human Jurkat cells after 72 hrs by proliferative assay; assay type: functional, cell-based
# SF-268 [22] = assay: Induction of cell cycle arrest in p53 deficient human SF268 cells assessed as residual DNA synthesis at 5 uM after 24 hrs FACS analysis; assay type: functional
# HeLa [23] = assay: Inhibition of DNA replication in human HeLa cells assessed as interorigin distance between homogenous DNA fibers at 20 uM after 6 hrs by immunofluorescence assay; assay type: functional
# Mus musculus = assay: AUC in SCID mouse carrying human HL60 cells at 30 mg/kg, iv after 10 hrs; assay type: ADME, organism-based, HL-60; parameters: time < 10 hr, dose 30 mg/kg, route intravenous; conditions: in vivo
# K562 [24] = assay: Induction of cell cycle arrest in p53 deficient human K562 cells assessed as accumulation at subG1 phase at 10 uM after 24hrs by FACS analysis; assay type: functional
# [25] = Inhibition of PDGFR
# HeLa [26] = assay: Inhibition of DNA replication in human HeLa cells assessed as interorigin distance between homogenous DNA fibers at 20 uM after 4 hrs by immunofluorescence assay; assay type: functional
# MCF7 [27] = assay: Induction of cell cycle arrest in human MCF7 cells expressing p53 gene assessed as accumulation at subG1 phase at 5 uM after 24hrs by FACS analysis; assay type: functional
# [28] = biological target: Serine/threonine-protein kinase Nek6 (Homo sapiens, UniProt Q9HC98); assay: Inhibition of Nek6
# [29] = biological target: Mitogen-activated protein kinase 11 (Homo sapiens, UniProt Q15759); assay: Inhibition of P38beta
# NHDF [30] = assay: Induction of cell cycle arrest in NHDF expressing p53 gene assessed as residual DNA synthesis at 10 uM after 24 hrs by FACS analysis; assay type: cell-based; conditions: human
# [31] = Antiproliferative activity against human NCI60 cells
# NHDF [32] = assay: Induction of cell cycle arrest in thymidine deficient NHDF assessed as DNA synthesis in S-phase at 5 uM after 2hrs FACS analysis; assay type: cell-based; conditions: human
# HeLa [33] = assay: Induction of cell cycle arrest in p53 deficient human HeLa cells assessed as residual DNA synthesis at 10 uM after 24 hrs by FACS analysis; assay type: functional
# NHDF [34] = assay: Prevention of nocodazole induced mitotic arrest in NHDF after 1 hr by FACS analysis; assay type: cell-based; conditions: human
# [35] = Induction of cell cycle arrest in p53 deficient human HCT116-E6 cells assessed as residual DNA synthesis at 10 uM after 24 hrs by FACS analysis; assay type: functional
# COLO 205 = assay: Induction of cell cycle arrest in p53 deficient human COLO205 cells assessed as residual DNA synthesis at 5 uM after 24 hrs by FACS analysis; assay type: functional
# HeLa [36] = assay: Inhibition of DNA replication in human HeLa cells assessed as interorigin distance between homogenous DNA fibers at 5 uM after 4 hrs by immunofluorescence assay; assay type: functional
# [37] = Induction of cell cycle arrest in p53 deficient human A2780/E6 cells assessed as residual DNA synthesis at 10 uM after 24 hrs by FACS analysis; assay type: functional
# SW480 = assay: Induction of cell cycle arrest in p53 deficient human SW480 cells assessed as residual DNA synthesis at 5 uM after 24 hrs by FACS analysis; assay type: functional
# [38] = Induction of cell cycle arrest in NHDF assessed as accumulation at subG1 phase at 5 uM after 24hrs by propidium-iodine staining based FACS analysis in presence of p53 specific siRNA; conditions: human
# Sequence of Mitogen-activated protein kinase 11 (Q15759 whole entry): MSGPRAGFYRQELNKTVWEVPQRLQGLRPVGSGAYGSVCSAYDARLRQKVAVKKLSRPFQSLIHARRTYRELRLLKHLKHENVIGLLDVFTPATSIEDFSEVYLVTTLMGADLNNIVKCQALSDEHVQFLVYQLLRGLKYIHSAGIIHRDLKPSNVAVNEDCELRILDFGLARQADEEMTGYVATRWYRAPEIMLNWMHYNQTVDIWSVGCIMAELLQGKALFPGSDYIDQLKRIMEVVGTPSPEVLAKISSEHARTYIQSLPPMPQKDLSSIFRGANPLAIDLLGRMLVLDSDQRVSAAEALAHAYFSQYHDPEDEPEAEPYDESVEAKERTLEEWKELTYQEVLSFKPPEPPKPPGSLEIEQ
# Sequence of Serine/threonine-protein kinase TAO3 (Q9H2K8 whole entry): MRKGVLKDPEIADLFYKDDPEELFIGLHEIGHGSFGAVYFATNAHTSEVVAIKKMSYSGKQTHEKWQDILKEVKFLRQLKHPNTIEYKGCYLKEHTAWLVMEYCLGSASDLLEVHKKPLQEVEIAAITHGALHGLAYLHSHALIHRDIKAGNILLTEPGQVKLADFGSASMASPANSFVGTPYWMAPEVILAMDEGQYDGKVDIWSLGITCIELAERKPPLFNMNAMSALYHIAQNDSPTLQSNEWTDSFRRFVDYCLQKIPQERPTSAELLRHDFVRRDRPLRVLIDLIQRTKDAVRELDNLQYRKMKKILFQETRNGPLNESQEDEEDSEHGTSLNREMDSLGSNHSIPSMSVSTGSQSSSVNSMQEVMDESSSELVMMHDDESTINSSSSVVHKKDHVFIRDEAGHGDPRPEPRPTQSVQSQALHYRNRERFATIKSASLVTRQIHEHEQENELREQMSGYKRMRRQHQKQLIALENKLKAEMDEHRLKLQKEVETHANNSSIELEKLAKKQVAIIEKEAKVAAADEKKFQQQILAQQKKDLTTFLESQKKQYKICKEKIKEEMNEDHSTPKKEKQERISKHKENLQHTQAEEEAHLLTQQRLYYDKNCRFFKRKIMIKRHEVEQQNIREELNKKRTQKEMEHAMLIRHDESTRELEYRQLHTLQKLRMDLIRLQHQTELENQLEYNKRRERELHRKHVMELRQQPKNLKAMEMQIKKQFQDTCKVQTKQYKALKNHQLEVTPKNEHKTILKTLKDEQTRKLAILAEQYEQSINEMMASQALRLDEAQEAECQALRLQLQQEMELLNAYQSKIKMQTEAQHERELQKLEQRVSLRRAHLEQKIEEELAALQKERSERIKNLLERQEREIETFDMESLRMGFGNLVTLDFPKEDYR
# Sequence of Serine/threonine-protein kinase Nek6 (Q9HC98 whole entry): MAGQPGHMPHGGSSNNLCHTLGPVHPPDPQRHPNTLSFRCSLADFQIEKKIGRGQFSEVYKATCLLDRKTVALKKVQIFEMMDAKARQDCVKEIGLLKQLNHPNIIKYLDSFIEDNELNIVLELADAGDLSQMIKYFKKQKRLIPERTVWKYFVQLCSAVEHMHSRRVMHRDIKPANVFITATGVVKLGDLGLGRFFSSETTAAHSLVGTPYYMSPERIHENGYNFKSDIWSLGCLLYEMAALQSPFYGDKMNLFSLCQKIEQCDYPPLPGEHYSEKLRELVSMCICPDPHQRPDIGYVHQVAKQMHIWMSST
smiles,measurement,setting,value
O=C1NCCc2[nH]c(-c3ccncc3)cc21,Activity,HeLa [1],1.8 kilobase
same,pIC50,SF-539 [2],5.63
same,Activity,HeLa [3],210 kilobase
same,Activity,SF-539 [4],<3%
same,Activity,HeLa [5],1.81 kilobase
same,Activity,NHDF [6],< 3%
same,pIC50,OVCAR-8 [7],5.81
same,Activity,K562 [8],<3%
same,pIC50,PC-3,5.34
same,Activity,MCF7 [9],<3%
same,pIC50,[10],< 5.00
same,Activity,U2OS,3%
same,Activity,HeLa [11],2.02 kilobase
same,Activity,Jurkat [12],<3%
same,Activity,[13],>20%
same,pIC50,[14],< 5.00
same,AUC,Rattus norvegicus,21 µM·h
same,Activity,HeLa [15],1.86 kilobase
same,Activity,HeLa [16],10%
same,Activity,OVCAR-8 [17],<3%
same,Activity,SF-268 [18],3%
same,pIC50,K562 [19],5.23
same,Activity,Jurkat [20],>20%
same,pIC50,Jurkat [21],5.49
same,Activity,SF-268 [22],<3%
same,Activity,HeLa [23],287 kilobase
same,AUC,Mus musculus,71 µM·h
same,Activity,K562 [24],<3%
same,pIC50,[25],< 5.00
same,Activity,HeLa [26],287 kilobase
same,Activity,MCF7 [27],3%
same,pIC50,[28],< 5.00
same,pIC50,[29],< 5.00
same,Activity,NHDF [30],< 3%
same,pIC50,[31],5.51
same,Activity,NHDF [32],Not Active
same,Activity,HeLa [33],<3%
same,Activity,NHDF [34],Not Active
same,Activity,[35],<3%
same,Activity,COLO 205,<3%
same,Activity,HeLa [36],288 kilobase
same,Activity,[37],<3%
same,Activity,SW480,<3%
same,Activity,[38],6.8%
